Results from patent publication US20190077840A1, “SELECTIVE MCL-1 BINDING PEPTIDES” (MASSACHUSETTS INSTITUTE OF TECHNOLOGY, priority 2015, published 2019).
Numbered stars: 1 amine (or outer) side, 2 acyl side, 3 side chain; on linkers, the order of the positions; unused ones are H or OH. Bridge positions count the residues as written; N and C are the ends. Square brackets hold non-standard residues; d marks the D form. Peptide text beside a SMILES is read from it. ξ: configuration not given here. ξαMeNle(6-ylidene) = CC(CCCC=[*:3])(N[*:1])C(=O)[*:2]; Cha = N[C@@H](CC1CCCCC1)C(=O)O; Nle = CCCC[C@H](N)C(=O)O; Aib = CC(C)(N)C(=O)O

Assays:
chymotrypsin = assay: Protease resistance: HPLC half-lives of peptides exposed to chymotrypsin
Mcl-1/Myc 2640 = assay type: cell-based, murine
Excerpt: (§1) A whole-cell BH3 profiling experiment quantifies the dependence of cancer cell mitochondrial integrity on specific anti-apoptotic proteins and can be predictive of cellular responses to chemotherapy (Ryan, J. A.; Brunelle, J. K.; Letai, A. Proc. Natl. Acad. Sci. 2010, 107 (29), 12895 and Ryan, J. A; Letai, A. Methods 2013, 61(2), 156). In this assay, permeabilized cells are stained with dye JC1 to monitor mitochondrial membrane integrity in response to increasing doses of BH3 peptides. We used this assay to test the specificity of our Mcl-1-binding stapled peptides in cell lines with different established dependencies on Bcl-xL and Mcl-1. Mcl-1/Myc 2640 is an engineered murine leukemia cell line overexpressing murine Mcl-1 and Myc, and MDA-MB 231 is a human breast cancer cell line with a primed Bcl-xL-dependent pro-file (Brunelle, J. K.; Ryan, J.; Yecies, D.; Opferman, J. T.; Letai, A. J Cell Biol. 2009, 187 (3), 429 and Ryan, J. A.; Brunelle, J. K.; Letai, A. Proc. Natl. Acad. Sci. 2010, 107 (29), 12895). By BH3 profiling using native BH3 peptides from BAD and NOXAA, we confirmed cell line dependencies on these anti-apoptotic proteins (FIG. 3). […] Mcl-1 2640 cell line is dependent on Mcl-1 whereas MDA-MB-231 is dependent on Bcl-xL, as indicated by response to NoxA and Bad, respectively. […]

MDA-MB 231 = assay type: cell-based, human
Excerpt: as §1

Mcl-1 = Mcl-1 (Homo sapiens, UniProt Q07820); assay: Competition fluorescence polarization/anisotropy assay with fluoresceinated Bim BH3 peptide for binding to Mcl-1
Mcl-1, sequence (Q07820 whole entry): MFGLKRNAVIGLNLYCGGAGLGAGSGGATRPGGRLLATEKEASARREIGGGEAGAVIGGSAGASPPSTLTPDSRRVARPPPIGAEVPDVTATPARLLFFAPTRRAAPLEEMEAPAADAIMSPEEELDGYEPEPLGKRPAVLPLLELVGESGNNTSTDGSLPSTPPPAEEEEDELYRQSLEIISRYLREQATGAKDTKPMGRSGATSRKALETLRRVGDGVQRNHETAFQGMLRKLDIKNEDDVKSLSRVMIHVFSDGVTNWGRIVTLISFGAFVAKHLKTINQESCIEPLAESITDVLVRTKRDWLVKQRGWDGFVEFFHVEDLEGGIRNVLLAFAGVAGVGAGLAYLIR
Excerpt: (§2) The standard errors reported are over three experiments.
Position 2e is usually conserved as small (alanine, glycine, serine) in natural BH3 sequences.

Bax/Bak deficient cells = assay: Whole-cell BH3 profiling in Bax/Bak deficient cells (BBDL); assay type: cell-based; details: Bax/Bak independent activity indicates non-specific toxicity
[1] = Circular dichroism spectroscopy (helicity); assay type: physicochemical; details: more helical than MS1
Method: as §2
The secondary structure of selected stapled peptides was assessed by circular dichroism (CD) spectroscopy (FIG. 1(c)). […] Therefore, the increases in helicity can be attributed to both helix-inducing substitutions: Aib at 2e and Cha at 3a (Armstrong, K. M.; Fairman, R.; Baldwin, R. L. J. Mol Biol. 1993, 230 (1), 284. and Venkatraman, J.; Shankaramma, S. C.; Balaram, P. Chem. Rev. 2001, 101 (10), 3131).

Row | Compound | half-lives (protease resistance) compared to M1d (chymotrypsin) | EC50 (Mcl-1/Myc 2640) [nM] | EC50 (MDA-MB 231) [nM] | Mcl-1-binding affinity in comparison to MS1 (Mcl-1) | activity in Bax/Bak deficient cells (Bax/Bak deficient cells) | helicity in solution relative to MS1 [1] [fold]
1 | CCCC[C@H](NC(=O)[C@H](Cc1c[nH]c2ccccc12)NC(=O)[C@@H](N)[C@@H](C)CC)C(=O)NC(C)(C)C(=O)N[C@@H](CCC(N)=O)C(=O)NCC(=O)N[C@@H](CC(C)C)C(=O)N[C@@H](CCCNC(=N)N)C(=O)N[C@@H](CCCNC(=N)N)C(=O)N[C@@H](CC(C)C)C(=O)NCC(=O)N[C@@H](CC(=O)O)C(=O)N[C@@H](CCC(=O)O)C(=O)N[C@H](C(=O)NC1(C)CCCC=CCCCC(C)(C(=O)N[C@@H](CCCNC(=N)N)C(=O)N[C@@H](CCCNC(=N)N)C(N)=O)NC(=O)[C@H](Cc2ccc(O)cc2)NC(=O)[C@H](Cc2ccc(O)cc2)NC(=O)[C@H](C)NC1=O)[C@@H](C)CC (stereo partly shown) [M2d, IWBAibQGLRRLGDEIXAYYXRR] (H-IW[Nle][Aib]QGLRRLGDEI[ξαMeNle(6-ylidene)]AYY[ξαMeNle(6-ylidene)]RR-NH2; staple 15-19) | longer half-lives | – | – | – | – | –
2 | CCCC[C@H](NC(=O)[C@H](Cc1c[nH]c2ccccc12)NC(=O)[C@@H](N)[C@@H](C)CC)C(=O)NC(C)(C)C(=O)N[C@@H](CCC(N)=O)C(=O)NCC(=O)N[C@@H](CC1CCCCC1)C(=O)N[C@@H](CCCNC(=N)N)C(=O)N[C@@H](CCCNC(=N)N)C(=O)N[C@@H](CC(C)C)C(=O)NCC(=O)N[C@@H](CC(=O)O)C(=O)N[C@@H](CCC(=O)O)C(=O)N[C@H](C(=O)NC1(C)CCCC=CCCCC(C)(C(=O)N[C@@H](CCCNC(=N)N)C(=O)N[C@@H](CCCNC(=N)N)C(N)=O)NC(=O)[C@H](Cc2ccc(O)cc2)NC(=O)[C@H](Cc2ccc(O)cc2)NC(=O)[C@H](C)NC1=O)[C@@H](C)CC (stereo partly shown) [M3d, IWBAibQGChaRRLGDEIXAYYXRR] (H-IW[Nle][Aib]QG[Cha]RRLGDEI[ξαMeNle(6-ylidene)]AYY[ξαMeNle(6-ylidene)]RR-NH2; staple 15-19) | longer half-lives | 30 | > 5000 | – | – | –
3 | IWBTQGLRRLGDEIXAYYXRR [M1d] | – | – | – | improved | Bax/Bak independent activity | ~3
